Legend:
[1] = molecular target: T1, Alpha-1A adrenergic receptor (Homo sapiens, UniProt P35348); assay type: functional, cell-based
T1 sequence (P35348 whole entry): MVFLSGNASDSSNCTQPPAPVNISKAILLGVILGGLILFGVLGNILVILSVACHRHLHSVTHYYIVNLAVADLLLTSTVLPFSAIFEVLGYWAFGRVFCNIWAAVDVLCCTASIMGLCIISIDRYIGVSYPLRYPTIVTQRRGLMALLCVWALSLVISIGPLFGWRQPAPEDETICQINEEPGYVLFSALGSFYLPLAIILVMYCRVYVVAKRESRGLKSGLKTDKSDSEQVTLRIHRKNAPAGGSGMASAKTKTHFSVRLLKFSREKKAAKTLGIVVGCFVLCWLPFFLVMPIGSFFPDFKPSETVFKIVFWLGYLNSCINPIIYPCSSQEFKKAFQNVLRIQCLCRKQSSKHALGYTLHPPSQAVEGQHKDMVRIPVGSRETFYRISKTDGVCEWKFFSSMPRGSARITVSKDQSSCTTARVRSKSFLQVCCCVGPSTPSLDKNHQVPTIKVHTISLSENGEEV

[2] = molecular target: T2, Progesterone receptor (Homo sapiens, UniProt P06401); assay type: functional
T2 sequence (P06401 whole entry): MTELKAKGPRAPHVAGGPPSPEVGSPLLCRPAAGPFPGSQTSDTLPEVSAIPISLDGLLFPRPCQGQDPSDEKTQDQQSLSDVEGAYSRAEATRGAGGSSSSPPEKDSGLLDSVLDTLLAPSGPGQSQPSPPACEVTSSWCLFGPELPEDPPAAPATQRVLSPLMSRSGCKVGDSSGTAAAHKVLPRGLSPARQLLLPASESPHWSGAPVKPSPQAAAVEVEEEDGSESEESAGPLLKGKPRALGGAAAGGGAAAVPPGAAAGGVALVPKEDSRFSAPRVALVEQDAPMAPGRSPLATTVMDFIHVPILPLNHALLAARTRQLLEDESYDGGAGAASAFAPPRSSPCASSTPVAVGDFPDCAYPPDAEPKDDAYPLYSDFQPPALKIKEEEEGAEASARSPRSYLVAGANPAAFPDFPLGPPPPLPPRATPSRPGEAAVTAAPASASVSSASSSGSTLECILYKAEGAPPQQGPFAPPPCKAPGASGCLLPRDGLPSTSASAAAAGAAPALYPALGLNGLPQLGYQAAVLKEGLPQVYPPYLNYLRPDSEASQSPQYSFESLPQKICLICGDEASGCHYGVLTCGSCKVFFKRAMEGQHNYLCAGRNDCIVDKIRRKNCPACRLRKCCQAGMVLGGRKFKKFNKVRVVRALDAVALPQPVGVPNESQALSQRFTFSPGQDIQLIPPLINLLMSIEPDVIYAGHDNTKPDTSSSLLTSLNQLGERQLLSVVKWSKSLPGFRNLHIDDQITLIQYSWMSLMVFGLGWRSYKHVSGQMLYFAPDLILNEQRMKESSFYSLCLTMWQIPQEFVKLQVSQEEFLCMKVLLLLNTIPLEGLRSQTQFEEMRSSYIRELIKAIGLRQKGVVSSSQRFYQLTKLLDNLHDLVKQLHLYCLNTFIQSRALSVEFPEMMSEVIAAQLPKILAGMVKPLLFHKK

[3] = molecular target: Vasopressin V2 receptor (Homo sapiens, UniProt P30518)
Vasopressin V2 receptor, sequence (P30518 whole entry): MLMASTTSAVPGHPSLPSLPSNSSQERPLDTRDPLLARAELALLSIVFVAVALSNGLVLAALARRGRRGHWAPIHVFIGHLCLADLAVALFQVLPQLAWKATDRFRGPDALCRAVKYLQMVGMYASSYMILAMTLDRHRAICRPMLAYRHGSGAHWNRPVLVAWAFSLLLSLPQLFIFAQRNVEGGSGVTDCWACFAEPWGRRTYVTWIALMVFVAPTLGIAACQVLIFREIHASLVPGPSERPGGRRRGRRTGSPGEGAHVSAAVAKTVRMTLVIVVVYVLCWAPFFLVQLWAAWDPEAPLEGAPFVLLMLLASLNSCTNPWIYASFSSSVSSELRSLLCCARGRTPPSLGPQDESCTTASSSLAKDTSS

[4] = molecular target: Glutamate receptor ionotropic, NMDA 1 (Rattus norvegicus, UniProt P35439)
[5] = molecular target: Histamine H1 receptor (Homo sapiens, UniProt P35367)
Histamine H1 receptor, sequence (P35367 whole entry): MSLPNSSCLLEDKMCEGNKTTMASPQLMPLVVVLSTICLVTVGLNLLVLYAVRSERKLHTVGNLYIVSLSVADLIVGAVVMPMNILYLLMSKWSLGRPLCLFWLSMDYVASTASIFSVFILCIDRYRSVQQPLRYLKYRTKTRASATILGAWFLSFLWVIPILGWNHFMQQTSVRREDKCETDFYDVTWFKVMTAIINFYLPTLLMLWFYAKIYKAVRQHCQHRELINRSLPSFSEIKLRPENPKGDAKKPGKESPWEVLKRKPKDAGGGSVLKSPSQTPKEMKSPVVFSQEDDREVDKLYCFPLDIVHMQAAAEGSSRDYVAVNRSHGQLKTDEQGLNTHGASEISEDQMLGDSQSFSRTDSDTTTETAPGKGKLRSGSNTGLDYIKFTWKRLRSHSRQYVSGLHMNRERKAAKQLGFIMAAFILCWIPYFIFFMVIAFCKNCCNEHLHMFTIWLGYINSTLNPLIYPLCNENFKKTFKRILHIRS

[6] = molecular target: Voltage-dependent L-type calcium channel subunit alpha-1C (Rattus norvegicus, UniProt P22002); assay type: functional
Voltage-dependent L-type calcium channel subunit alpha-1C, sequence (P22002 whole entry): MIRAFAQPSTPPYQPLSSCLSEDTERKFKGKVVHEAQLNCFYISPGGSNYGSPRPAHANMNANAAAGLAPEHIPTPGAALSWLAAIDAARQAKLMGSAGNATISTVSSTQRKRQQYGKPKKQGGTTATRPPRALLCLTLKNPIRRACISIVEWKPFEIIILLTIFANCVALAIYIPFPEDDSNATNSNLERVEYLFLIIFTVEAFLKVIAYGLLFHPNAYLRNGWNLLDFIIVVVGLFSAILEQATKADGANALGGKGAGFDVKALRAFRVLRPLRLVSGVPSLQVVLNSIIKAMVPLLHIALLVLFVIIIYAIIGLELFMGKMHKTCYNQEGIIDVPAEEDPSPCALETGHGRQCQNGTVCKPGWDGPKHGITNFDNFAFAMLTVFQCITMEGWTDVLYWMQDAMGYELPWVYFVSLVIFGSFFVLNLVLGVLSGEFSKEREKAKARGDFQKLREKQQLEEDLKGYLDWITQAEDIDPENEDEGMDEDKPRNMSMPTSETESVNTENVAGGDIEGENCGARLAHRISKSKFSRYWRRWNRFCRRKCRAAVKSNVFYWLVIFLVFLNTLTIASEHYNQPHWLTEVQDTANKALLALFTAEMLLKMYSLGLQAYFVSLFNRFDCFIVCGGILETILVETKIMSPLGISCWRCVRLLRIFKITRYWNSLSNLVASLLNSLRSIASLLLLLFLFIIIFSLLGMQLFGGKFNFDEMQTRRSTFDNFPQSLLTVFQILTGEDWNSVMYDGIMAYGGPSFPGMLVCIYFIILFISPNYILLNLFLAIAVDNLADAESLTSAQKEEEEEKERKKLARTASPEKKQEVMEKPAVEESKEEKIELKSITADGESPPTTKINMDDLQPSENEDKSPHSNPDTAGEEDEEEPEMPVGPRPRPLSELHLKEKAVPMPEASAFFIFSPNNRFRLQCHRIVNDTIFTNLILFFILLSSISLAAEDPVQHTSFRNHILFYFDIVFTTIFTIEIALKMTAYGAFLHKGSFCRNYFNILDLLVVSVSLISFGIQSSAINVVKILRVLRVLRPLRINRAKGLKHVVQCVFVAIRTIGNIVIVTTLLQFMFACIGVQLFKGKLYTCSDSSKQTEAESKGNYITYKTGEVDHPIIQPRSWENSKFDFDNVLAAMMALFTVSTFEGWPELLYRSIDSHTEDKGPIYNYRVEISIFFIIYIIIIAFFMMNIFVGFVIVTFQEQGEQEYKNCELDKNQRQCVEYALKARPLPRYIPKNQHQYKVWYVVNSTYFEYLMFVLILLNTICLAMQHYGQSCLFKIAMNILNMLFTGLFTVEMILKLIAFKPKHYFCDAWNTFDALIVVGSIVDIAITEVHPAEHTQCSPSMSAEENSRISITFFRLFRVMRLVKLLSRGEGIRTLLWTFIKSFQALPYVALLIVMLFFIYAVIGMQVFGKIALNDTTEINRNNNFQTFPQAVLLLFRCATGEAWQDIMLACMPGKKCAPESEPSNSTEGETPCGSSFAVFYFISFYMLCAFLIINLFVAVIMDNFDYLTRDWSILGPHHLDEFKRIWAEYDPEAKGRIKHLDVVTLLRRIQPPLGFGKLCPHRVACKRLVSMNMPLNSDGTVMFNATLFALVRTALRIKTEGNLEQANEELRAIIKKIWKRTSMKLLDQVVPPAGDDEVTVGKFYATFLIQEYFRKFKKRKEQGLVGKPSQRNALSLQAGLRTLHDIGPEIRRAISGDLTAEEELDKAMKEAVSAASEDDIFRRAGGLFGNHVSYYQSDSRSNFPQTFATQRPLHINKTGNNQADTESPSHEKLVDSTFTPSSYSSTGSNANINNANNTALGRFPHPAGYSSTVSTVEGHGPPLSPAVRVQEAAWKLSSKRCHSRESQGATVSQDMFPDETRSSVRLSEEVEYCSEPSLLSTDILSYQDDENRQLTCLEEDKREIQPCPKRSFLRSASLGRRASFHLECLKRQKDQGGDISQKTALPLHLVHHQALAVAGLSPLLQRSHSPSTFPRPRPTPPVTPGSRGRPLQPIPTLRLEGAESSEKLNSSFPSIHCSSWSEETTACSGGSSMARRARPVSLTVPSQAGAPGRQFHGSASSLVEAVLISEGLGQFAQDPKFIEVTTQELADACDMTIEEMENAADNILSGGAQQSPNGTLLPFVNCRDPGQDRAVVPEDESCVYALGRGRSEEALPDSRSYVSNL

[7] = molecular target: Cannabinoid receptor 1 (Homo sapiens, UniProt P21554)
Cannabinoid receptor 1, sequence (P21554 whole entry): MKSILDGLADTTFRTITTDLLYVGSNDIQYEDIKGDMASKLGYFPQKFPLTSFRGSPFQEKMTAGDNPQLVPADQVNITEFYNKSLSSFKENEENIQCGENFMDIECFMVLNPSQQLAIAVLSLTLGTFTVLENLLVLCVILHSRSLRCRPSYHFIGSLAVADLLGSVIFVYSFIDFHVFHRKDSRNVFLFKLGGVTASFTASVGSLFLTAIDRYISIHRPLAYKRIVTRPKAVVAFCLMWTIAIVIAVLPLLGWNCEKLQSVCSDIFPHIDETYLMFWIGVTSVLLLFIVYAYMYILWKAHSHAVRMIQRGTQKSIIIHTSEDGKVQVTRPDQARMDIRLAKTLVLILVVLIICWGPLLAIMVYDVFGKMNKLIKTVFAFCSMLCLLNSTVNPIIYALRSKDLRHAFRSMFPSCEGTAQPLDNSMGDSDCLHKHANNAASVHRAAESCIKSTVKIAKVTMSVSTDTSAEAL

[8] = molecular target: Gamma-aminobutyric acid receptor subunit alpha-1 (Rattus norvegicus, UniProt P62813)
[9] = molecular target: 5-hydroxytryptamine receptor 2B (Homo sapiens, UniProt P41595); assay type: functional, cell-based
5-hydroxytryptamine receptor 2B, sequence (P41595 whole entry): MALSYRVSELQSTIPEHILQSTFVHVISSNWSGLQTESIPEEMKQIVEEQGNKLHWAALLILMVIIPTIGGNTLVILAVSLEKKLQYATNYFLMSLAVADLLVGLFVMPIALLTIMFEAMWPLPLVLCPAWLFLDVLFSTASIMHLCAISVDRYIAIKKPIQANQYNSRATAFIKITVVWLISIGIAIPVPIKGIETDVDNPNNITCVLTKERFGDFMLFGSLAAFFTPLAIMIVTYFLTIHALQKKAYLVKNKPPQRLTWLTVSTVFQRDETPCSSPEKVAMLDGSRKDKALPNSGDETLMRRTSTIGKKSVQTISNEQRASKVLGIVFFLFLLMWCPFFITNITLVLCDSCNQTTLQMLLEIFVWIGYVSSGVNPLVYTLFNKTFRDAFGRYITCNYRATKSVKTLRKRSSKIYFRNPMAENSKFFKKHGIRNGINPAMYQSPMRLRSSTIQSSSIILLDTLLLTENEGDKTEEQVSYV

[10] = molecular target: Sodium-dependent noradrenaline transporter (Homo sapiens, UniProt P23975)
Sodium-dependent noradrenaline transporter, sequence (P23975 whole entry): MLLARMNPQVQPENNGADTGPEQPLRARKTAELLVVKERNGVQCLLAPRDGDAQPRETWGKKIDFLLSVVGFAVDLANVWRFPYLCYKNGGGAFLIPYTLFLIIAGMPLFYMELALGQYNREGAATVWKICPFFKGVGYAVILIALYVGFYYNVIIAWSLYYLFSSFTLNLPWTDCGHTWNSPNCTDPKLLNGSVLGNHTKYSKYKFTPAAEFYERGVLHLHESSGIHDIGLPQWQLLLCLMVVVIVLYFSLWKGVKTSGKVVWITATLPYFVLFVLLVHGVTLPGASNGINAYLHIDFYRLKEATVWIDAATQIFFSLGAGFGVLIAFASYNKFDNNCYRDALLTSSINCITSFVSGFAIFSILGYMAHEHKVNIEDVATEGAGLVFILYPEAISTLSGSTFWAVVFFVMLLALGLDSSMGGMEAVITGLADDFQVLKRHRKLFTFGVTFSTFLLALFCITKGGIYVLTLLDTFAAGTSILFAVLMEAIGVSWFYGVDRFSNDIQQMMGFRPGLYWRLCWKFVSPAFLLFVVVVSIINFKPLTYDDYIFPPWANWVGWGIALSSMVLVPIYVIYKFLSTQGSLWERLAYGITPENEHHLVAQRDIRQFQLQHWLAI

[11] = molecular target: Histamine H3 receptor (Homo sapiens, UniProt Q9Y5N1)
Histamine H3 receptor, sequence (Q9Y5N1 whole entry): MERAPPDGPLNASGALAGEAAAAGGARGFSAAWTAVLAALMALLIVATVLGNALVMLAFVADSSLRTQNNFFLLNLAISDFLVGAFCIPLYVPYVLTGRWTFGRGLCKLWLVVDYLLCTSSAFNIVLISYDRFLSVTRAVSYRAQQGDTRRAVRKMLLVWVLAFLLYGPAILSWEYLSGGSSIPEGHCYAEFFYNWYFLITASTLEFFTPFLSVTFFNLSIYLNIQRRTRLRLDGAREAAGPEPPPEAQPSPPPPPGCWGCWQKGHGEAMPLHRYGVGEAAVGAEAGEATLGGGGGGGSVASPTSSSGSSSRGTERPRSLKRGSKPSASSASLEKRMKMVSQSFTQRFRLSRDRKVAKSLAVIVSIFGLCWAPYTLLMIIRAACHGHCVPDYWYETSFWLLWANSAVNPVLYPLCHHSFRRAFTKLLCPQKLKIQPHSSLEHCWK

[12] = molecular target: T3, Alpha-2A adrenergic receptor (Homo sapiens, UniProt P08913)
T3 sequence (P08913 whole entry): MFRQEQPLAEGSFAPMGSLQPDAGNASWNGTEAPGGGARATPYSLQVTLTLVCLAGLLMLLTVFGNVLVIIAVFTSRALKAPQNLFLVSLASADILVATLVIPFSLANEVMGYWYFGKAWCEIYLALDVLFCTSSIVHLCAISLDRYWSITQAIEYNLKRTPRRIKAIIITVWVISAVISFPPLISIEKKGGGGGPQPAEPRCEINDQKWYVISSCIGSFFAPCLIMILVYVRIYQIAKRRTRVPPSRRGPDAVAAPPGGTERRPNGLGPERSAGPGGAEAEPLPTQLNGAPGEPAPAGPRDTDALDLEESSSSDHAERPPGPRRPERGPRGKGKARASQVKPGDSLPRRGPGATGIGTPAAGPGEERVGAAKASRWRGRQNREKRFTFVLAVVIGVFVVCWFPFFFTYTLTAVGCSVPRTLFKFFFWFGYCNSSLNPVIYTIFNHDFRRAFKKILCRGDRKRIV

[13] = molecular target: 3',5'-cyclic-AMP phosphodiesterase 4A (Homo sapiens, UniProt P27815); assay type: functional
[14] = molecular target: T4, Amine oxidase [flavin-containing] A (Homo sapiens, UniProt P21397); assay type: functional
T4 sequence (P21397 whole entry): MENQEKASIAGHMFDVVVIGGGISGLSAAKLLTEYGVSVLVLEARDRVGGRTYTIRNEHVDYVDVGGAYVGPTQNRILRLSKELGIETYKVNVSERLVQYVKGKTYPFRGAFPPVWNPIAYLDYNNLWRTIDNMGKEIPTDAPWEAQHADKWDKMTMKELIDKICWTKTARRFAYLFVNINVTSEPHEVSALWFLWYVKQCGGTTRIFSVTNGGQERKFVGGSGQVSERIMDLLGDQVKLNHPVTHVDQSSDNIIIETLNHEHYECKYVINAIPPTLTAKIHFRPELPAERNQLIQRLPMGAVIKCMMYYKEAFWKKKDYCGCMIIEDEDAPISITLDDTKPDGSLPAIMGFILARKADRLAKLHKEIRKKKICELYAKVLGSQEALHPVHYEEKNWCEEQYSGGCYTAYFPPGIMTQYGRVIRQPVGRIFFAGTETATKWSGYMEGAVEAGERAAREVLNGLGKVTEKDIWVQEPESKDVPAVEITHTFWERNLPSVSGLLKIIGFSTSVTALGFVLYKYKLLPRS
Further: assay procedure not described here.

Row | Compound | AC50 [1] [µM] | AC50 [2] [µM] | AC50 [3] [µM] | AC50 [4] [µM] | AC50 [5] [µM] | AC50 [6] [µM] | AC50 [7] [µM] | AC50 [8] [µM] | AC50 [9] [µM] | AC50 [10] [µM] | AC50 [11] [µM] | AC50 [12] [µM] | AC50 [13] [µM] | AC50 [14] [µM]
1 | CCCCN1C[C@H](O)[C@@H](O)[C@H](O)[C@H]1CO | > 30 | > 30 | > 30 | > 30 | > 30 | > 30 | > 30 | > 30 | > 30 | – | – | – | – | –
2 | NCC(CC(=O)O)c1ccc(Cl)cc1 (stereo not given) [BACLOFEN] | > 30 | > 30 | > 30 | > 10 | – | > 10 | > 10 | > 10 | > 30 | > 30 | > 30 | > 30 | > 30 | > 30
3 | O=C1Nc2ccc(Cl)cc2[C@@](C#CC2CC2)(C(F)(F)F)O1 [EFAVIRENZ] | > 30 | > 30 | > 30 | > 10 | > 30 | 18.8 | 20.7 | > 10 | > 10 | – | – | – | – | –
4 | COc1ccccc1OCC(O)CN1CCN(CC(=O)Nc2c(C)cccc2C)CC1 (stereo not given) [RANOLAZINE] | 1.7 | > 30 | > 30 | > 30 | > 30 | > 30 | > 30 | > 30 | 11 | – | – | – | – | –
5 | CO[C@H]1C[C@@H]2CC[C@@H](C)[C@@](O)(O2)C(=O)C(=O)N2CCCC[C@H]2C(=O)O[C@H]([C@H](C)C[C@@H]2CC[C@@H](O)[C@H](OC)C2)CC(=O)[C@H](C)/C=C(\C)[C@@H](O)[C@@H](OC)C(=O)[C@H](C)C[C@H](C)/C=C/C=C/C=C/1C [SIROLIMUS] | > 30 | – | > 30 | > 10 | – | > 10 | > 10 | > 10 | > 10 | > 30 | > 30 | > 30 | > 30 | > 30
6 | Cc1cn([C@H]2C=C[C@@H](CO)O2)c(=O)[nH]c1=O [STAVUDINE] | > 30 | – | > 30 | > 10 | – | > 10 | > 10 | > 10 | > 10 | > 30 | > 30 | > 30 | > 30 | > 30
7 | Cn1nnc2c(C(N)=O)ncn2c1=O [TEMOZOLOMIDE] | > 30 | > 30 | > 30 | > 10 | > 30 | > 10 | > 10 | > 10 | > 30 | – | – | – | – | –
8 | O=C(O[C@H]1C[C@H]2CC[C@@H](C1)[N+]21CCCC1)C(O)(c1ccccc1)c1ccccc1 [TROSPIUM] | > 30 | > 30 | > 30 | > 30 | 11 | > 30 | > 30 | > 30 | > 30 | – | – | – | – | –
9 | Nc1ccn([C@H]2CC[C@@H](CO)O2)c(=O)n1 [ZALCITABINE] | > 30 | – | > 10 | > 10 | > 10 | > 10 | > 10 | > 10 | > 10 | – | – | – | – | –

Reference: ChEMBL document CHEMBL5291721, “A preclinical secondary pharmacology resource illuminates target-adverse drug reaction associations of marketed drugs” (Nat Commun, 2023)
